Structures can show the parent of a compound that is named as a salt.
system: not given; test: not given; details: not given

With `COc1cc(C2=CCCCC2)c(Cl)cc1C(=O)N1Cc2ccc(C(=O)N(C)Cc3cccnc3)n2Cc2ccccc21` [Example 1, 10-(5-Chloro-4-cyclohex-1-en-1-yl-2-me3thoxybenzoyl)-N-methyl-N-(pyridin-3-ylmethyl)-10,11-dihydro-5H-pyrrolo [2,1-c][1,4]benzodiazepine-3-carboxamide] the melting point was 178 to 179 °C.

target: T1, human vasopressin V1a receptor subtype (Homo sapiens, UniProt P37288); test: Vasopressin binding in CHO cell membranes expressing human vasopressin V1a subtype receptors; details: 100 nM, [3H]Manning ligand
T1 construct: host or cells: CHO cells, stably transfected (pZeoSV vector for the Thibonnier cells)
Text: Vasopressin Binding in Chinese Hamster Ovary Cell Membranes Expressing Human Vasopressin V1a Subtype Receptors
Chinese hamster ovary cells (CHO cells) stably transfected with the human vasopressin V1a subtype receptors were either obtained from Biosignal Inc., 1744 rue Williams, Montreal, Quebec, Canada or obtained from M. Thibonnier, Case Western Reserve University School of Medicine, Cleveland, Ohio.
A. Passaging and Amplification of Cells:
CHO cells transfected with the human vasopressin V1a subtype receptors obtained from M. Thibonnier (pZeoSV vector) are allowed to grow to confluency (approx. >90%) in T-150 flasks under sterile conditions, in a cell culture medium consisting of F-12 Nutrient Mixture (HAM) with L-glutamine (Gibco Cat.# 11765-054) containing 15 mM HEPES (Gibco Cat.# 15630-080), 1% antibiotic/antimycotic (add 5 mL 100×, Gibco Cat.# 15240-062 per 500 mL F-12), 250 μg/mL Zeocin (add 1.25 mL of 100 mg/mL Invitrogen R-250-01 per 500 mL F-12) and 10% Fetal Bovine Serum (Qualified, heat inactivated, Gibco Cat.# 16140-063). The medium is removed by aspiration and the cells are washed with 10 mL of Hank's Balanced Salt solution (Gibco Cat.# 14175-095). The salt solution is removed by aspiration and the cells are trypsinized with 5 mL of trypsin-EDTA (0.05% trypsin, 0.53 mM EDTA-4Na, Gibco Cat.# 25300-070) for 1 min. The trypsin is removed by aspiration and the cells dislodged by tapping. Cell Culture medium (eg, 30 mL for 1:30 split) is immediately added and mixed well to inactivate trypsin. 1 mL of detached cells is added to new culture flasks containing fresh cell culture medium (eg, into 25 mL per T-150 flask), and mixed gently. The cells are incubated at 37° C. in 5% CO2. The medium is changed at 3 to 4 days interval (or as appropriate). The cells grow to confluency (approx. >75%-95%) within 7-8 days. All steps are done under sterile conditions.
The cells are washed twice gently with Hank's Balanced Salt solution (e.g,. use 10 mL per T-150 flask). The excess is removed and the cells are bathed for 15-30 min. in an enzyme-free Cell Dissociation Buffer (e.g. use 8 mL Hank's Based, Gibco Cat.# 13150-016 per T-150 flask) until the cells are loosened. The contents are transferred to centrifuge tubes (50 mL) kept an ice bath. All subsequent steps are done at 4° C. The tubes are centrifuged at 300×g for 15 min (1380 rpm on SORVAL, Model RT6000D, using the rotor for 50 mL tubes). The supernatant is discarded and the cells suspended in homogeneizing buffer (10 mM Tris-HCl containing 0.25 M sucrose and 1 mM EDTA, pH 7.4) ensuring that the volume of the buffer is about ten times the volume of the cell pellet. The cells are pooled into a centrifuge tube (50 mL) and homogenized with Polytron at setting 6 for 10 sec. The homogenate is transferred into a Potter-Elvjehm homogenizer and homogenized with 3 strokes. The homogenate is centrifuged at 1500×g for 10 min at 4° C. (3100 rpm using SORVAL, model RT6000D, using the rotor for 50 mL tubes). The pellet is discarded. The supernatant is centrifuged at 100,000×g for 60 min. at 4° C. (Beckman L8-80M ultracentrifuge; spin at 37,500 rpm with rotor type 70 Ti for 50 mL tubes; 38,000 rpm with type […] for 15 mL tubes; or 35,800 rpm with rotor type 45Ti). The supernatant is discarded and the pellet suspended in 3 to 4 mL of Tris buffer (50 mM TRIS-HCl, pH 7.4). The protein content is estimated by the Bradford or Lowry method. The volume of the membrane suspension is adjusted with the membrane buffer (50 mM Tris-HCl containing 0.1% BSA and 0.1 mM PMSF) to give 3.0 mg/mL (or as appropriate) of protein. The membranes are aliquoted and stored at −70° C.
C. Radioligand Binding Assay: […]

T1 sequence (P37288 whole entry): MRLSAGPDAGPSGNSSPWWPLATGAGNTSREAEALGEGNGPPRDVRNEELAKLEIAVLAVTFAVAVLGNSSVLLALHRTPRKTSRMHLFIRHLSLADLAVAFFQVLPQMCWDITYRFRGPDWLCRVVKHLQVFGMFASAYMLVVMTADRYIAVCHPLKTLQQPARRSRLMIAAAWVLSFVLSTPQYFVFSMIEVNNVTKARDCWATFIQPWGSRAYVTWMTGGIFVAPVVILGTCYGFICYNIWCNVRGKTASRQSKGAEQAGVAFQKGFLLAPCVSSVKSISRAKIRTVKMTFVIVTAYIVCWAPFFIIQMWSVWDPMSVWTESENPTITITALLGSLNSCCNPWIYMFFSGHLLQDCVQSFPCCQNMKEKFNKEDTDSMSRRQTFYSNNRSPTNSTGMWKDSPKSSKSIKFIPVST

Going from `Cc1cc(C(=O)N2Cc3ccc(C(=O)N(C)CCc4ccncc4)n3Cc3ccccc32)ccc1C1=CCCCC1` [Example 13, 10-[4-(1-Cyclohex-1-en-1-yl)-3-methylbenzoyl]-N-methyl-N-[2-(4-pyridinyl)ethyl]-10,11-dihydro-5H-pyrrolo[2,1-c][1,4]benzodiazepine-3-carboxamide] to `Cc1cc(C(=O)N2Cc3ccc(C(=O)NCc4ccncc4)n3Cc3ccccc32)ccc1C1=CCCCC1` [Example 10, 10-[4-(1-Cyclohex-1-en-1-yl)-3-methylbenzoyl]-N-(4-pyridinylmethyl)-10,11-dihydro-5H-pyrrolo[2,1-c][1,4]benzodiazepine-3-carboxamide], the “V1a % inhibition @ 100 nM” value falls from 51% to 13%.

Compared with `Cc1cc(C(=O)N2Cc3ccc(C(=O)NCc4ccccn4)n3Cc3ccccc32)ccc1C1=CCCCC1` [Example 5, 10-[4-(1-Cyclohex-1-en-1-yl)-3-methylbenzoyl]-N-(2-pyridinylmethyl)-10,11-dihydro-5H-pyrrolo[2,1-c][1,4]benzodiazepine-3-carboxamide], `Cc1cc(C(=O)N2Cc3ccc(C(=O)NCCc4ccccn4)n3Cc3ccccc32)ccc1C1=CCCCC1` [Example 7, 10-[4-(1-Cyclohex-1-en-1-yl)-3-methylbenzoyl]-N-[2-(2-pyridinyl)ethyl]-10,11-pyrrolo[2,1-c][1,4]benzodiazepine-3-carboxamide] is lower in “V1a % inhibition @ 100 nM” value: 18% for the first, 13% for the second.

Going from `Cc1cc(C(=O)N2Cc3ccc(C(=O)N4CCN(c5ccncc5)CC4)n3Cc3ccccc32)ccc1C1=CCCCC1` [Example 12, {10-[4-(1-Cyclohex-1-en-1-yl)-3-methylbenzoyl]-10,11-dihydro-5H-pyrrolo[2,1--c][1,4]benzodiazepin-3-yl}[4-(4-pyridinyl)-1-piperazinyl]methanone] to `Cc1cc(C(=O)N2Cc3ccc(C(=O)N4CCN(c5ccccn5)CC4)n3Cc3ccccc32)ccc1C1=CCCCC1` [Example 9, {10-[4-(1-Cyclohex-1-en-1-yl)-3-methylbenzoyl]-10,11-dihydro-5H-pyrrolo[2,1-c][1,4]benzodiazepin-3-yl}[4-(2-pyridinyl)-1-piperazinyl]methanone], the “V1a % inhibition @ 100 nM” value falls from 73% to 5%.

First: CC1=C(c2ccc(C(=O)N3Cc4ccc(C(=O)N(C)Cc5cccnc5)n4Cc4ccccc43)cc2C)CCC[C@H]1O [Example 3, 10-[4-((3R)-3-Hydroxy-2-methyl-cyclohex-1-en-1-yl)-3-methyl-benzoyl]-10,11-dihydro-5H-pyrrolo[2,1-c][1,4]benzodiazepine-3-carboxylic acid methyl-pyridin-3-yl methyl-amide]
Second: CC1=C(c2ccc(C(=O)N3Cc4ccc(C(=O)N(C)Cc5cccnc5)n4Cc4ccccc43)cc2C)CCC[C@H]1O.O=C(O)C(O)C(O)C(=O)O [Example 4, 10-[4-((3R)-3-Hydroxy-2-methyl-cyclohex-1-en-1-yl)-3-methyl-benzoyl]-10,11-dihydro-5H-pyrrolo[2,1-c][1,4]benzodiazepine-3-carboxylic acid methyl-pyridin-3-yl methyl-amide L-(+)-tartaric acid salt]
The “V1a % inhibition @ 100 nM” value of the first is lower: 41% for the first, 61% for the second.

Compared with `Cc1cc(C(=O)N2Cc3ccc(C(=O)NCc4cccnc4)n3Cc3ccccc32)ccc1C1=CCCCC1` [Example 6, 10-[4-(1-Cyclohex-1-en-1-yl)-3-methylbenzoyl]-N-(3-pyridinylmethyl)-10,11-dihydro-5H-pyrrolo[2,1-c][1 ,4]benzodiazepine-3-carboxamide], `Cc1cc(C(=O)N2Cc3ccc(C(=O)N(C)Cc4cccnc4)n3Cc3ccccc32)ccc1C1=CCCCC1` [Example 11, 10-[4-(1-Cyclohex-1-en-1-yl)-3-methylbenzoyl]-N-methyl-N-(3-pyridinylmethyl)-10,11-dihydro-5H-pyrrolo[2,1-c][1,4]benzodiazepine-3-carboxamide] is higher in “V1a % inhibition @ 100 nM” value: 6% for the first, 54% for the second.

With `Cc1cc(C(=O)N2Cc3ccc(C(=O)N(C)CCc4ccccn4)n3Cc3ccccc32)ccc1C1=CCCCC1` [Example 8, 10-[4-(1-Cyclohex-1-en-1-yl)-3-methylbenzoyl]-N-methyl-N-[2-(2-pyridinyl)ethyl]-10,11-dihydro-5H-pyrrolo[2,1-c][1 ,4]benzodiazepine-3-carboxamide] the “V1a % inhibition @ 100 nM” value was 43%.

same assay, conditions: [3H]Manning ligand, value in parentheses

For `COc1cc(C2=CCCCC2)c(Cl)cc1C(=O)N1Cc2ccc(C(=O)N(C)Cc3cccnc3)n2Cc2ccccc21` [Example 1, 10-(5-Chloro-4-cyclohex-1-en-1-yl-2-me3thoxybenzoyl)-N-methyl-N-(pyridin-3-ylmethyl)-10,11-dihydro-5H-pyrrolo [2,1-c][1,4]benzodiazepine-3-carboxamide], the IC50 was 1090 nM.
Work on `COc1cc(C2=CCCCC2)c(Cl)cc1C(=O)N1Cc2ccc(C(=O)N(C)Cc3cccnc3)n2Cc2ccccc21` [Example 2, 10-(5-Chloro-4-cyclohex-1-en-1-yl-2-methoxybenzoyl)-N-methyl-N-(pyridin-3-ylmethyl)-10,11-dihydro-5H-pyrrolo[2,1-c][1,4]benzodiazepine-3-carboxamide L-(+)-tartaric acid salt hemihydrate] yielded an IC50 of 1320 nM.
